Test results: US20240327506A1, “METHODS AND COMPOSITION FOR THE SELECTIVE ENHANCEMENT OF ADOPTIVE CELL THERAPY” (MaineHealth, priority 2023, published 2024)

Tested on: primary murine CD8+ T-cells
Test: CD8+ T-cell polarization on denatured collagen type-IV (F-actin staining)
Type: cell-based
Settings: denatured collagen type-IV coated slides, 1 hour, compared to CP
From the text: FIGS. 3A-3C. The RGDKGE (SEQ ID NO: 1)-containing collagen peptide P2 inhibits CD8+ T-cell polarization on denatured collagen type-IV. Briefly, microscopy slides were coated with denatured collagen type-IV to mimic the altered subendothelial basement membranes of tumor associated blood vessels. Murine primary CD8+ T-cells were isolated from mice bearing B16F10 melanomas and stimulated with either non-specific control peptide CP or the RGDKGE (SEQ ID NO: 1)-containing collagen peptide P2 and seeded on the coated slides. T-cells were allowed to incubate for 1 hour. Next slides were washed, fixed and stained with Rhodamine-labeled Phalloidin to mark F-actin. Cells were analyzed for morphological evidence of cell shape changes and polarized F-actin. FIG. 3A. Example of an enlarged image of CD8+ T-cell morphology following stimulation with either non-specific control peptide CP or the RGDKGE (SEQ ID NO: 1)-containing collagen peptide P2. FIG. 3B. Example of CD8+ T-cell morphology following stimulation with either non-specific control peptide CP or the RGDKGE (SEQ ID NO: 1)-containing collagen peptide P2. […] FIG. 3C. Quantification of the mean percentage of polarized CD8+ T-cells per 400× microscopic field. Data bars indicate mean percentage of polarized cells per 400× microscopic field from two independent experiments with 10 to 11 fields per treatment. *P<0.05. […]

Sequence: QGPRGDKGE (CQGPRGDKGEC; Synthetic: Synthetic collagen RGD containing peptide P-2) [Peptide P2, synthetic version of the soluble RGDKGE-containing collagen peptide]
- percentage of T-cells exhibiting a migratory and polarized morphological phenotype: significant decrease
